Assay results: patent US20250002477A1, “BENZIMIDAZOLE COMPOUND OR SALT THEREOF, CANINE FILARIASIS CONTROL AGENT CONTAINING SAME, AND METHOD OF USE THEREOF” (NIHON NOHYAKU CO., LTD., priority 2021, published 2025)

Test system: L-1 stage larvae of canine filariae (Dirofilaria immitis)
Assay: Impact evaluation test on larvae motility of canine filariae
Conditions: final concentration of 50 ppm, 3 days, corrected for DMSO solution alone

Structure (SMILES): Clc1ccc(CCc2cn(-c3nc4ccccc4[nH]3)cn2)c(Cl)c1 [Compound 1-1, 2-(4-(2-(2,4-dichlorophenyl)ethyl)-1H-imidazol-1-yl)benzimidazole]
- activity level (corrected motility impediment rate): A (the corrected motility impediment rate is 100%)
